From patent US4705799A, “Aminomethyl oxooxazolidinyl benzenes useful as antibacterial agents” (E. I. Du Pont de Nemours and Company, priority 1985, dated 1987)
Converted amounts (≈) assume the structure as drawn. Counter-ions that a name gives are not always drawn. Like-named read-outs stand apart in the source and are kept apart here.

Tests used:
[1] = system: Staphylococcus epidermidis; experiment: In vitro broth dilution minimal inhibitory concentration (standard microdilution method); type: cell-based; settings: for MIC: 24 h, read-out: Microdilution Broth MIC
[2] = system: Escherichia coli; experiment: as above; type: cell-based; settings: Escherichia coli; for MIC: read-out: Microdilution Broth MIC
[3] = system: Staphylococcus aureus; experiment: In vivo efficacy of orally administered compounds in mouse intraperitoneal infections; settings: for ED50: Staphylococcus aureus, po, 168 h, read-out: ED50 (50 percent effective dose); for ED50 (50 percent effective dose): 10080 min
Experimental: (§1) Determinations of in vivo efficacy are performed by inoculating mice intraperitoneally with cultures of the infecting organism diluted to produce 90-100% mortality in control animals within twenty-four hours. The diluents used were trypticase soy broth for E. coli and 5% aqueous hog gastric mucin for Staphylococcus aureus infections. The compounds are dissolved or suspended in 0.25% aqueous Methocel® (Methocel®: Hydroxypropyl Methylcellulose E15 Premium, Dow Chemical Company) for oral administration or sterile distilled water containing 5% dimethylsulfoxide (Fisher Scientific Company, Fairlawn, N.J.) for subcutaneous administration. The mice are dosed at the time of infection and again at four hours post-infection. Mortality is recorded daily until test termination seven days post infection and the 50 percent effective dose, ED50, is calculated by the Reed-Muench method (Reed, L. G. and Muench, H., "A simple method of estimating fifty percent end points," American Journal of Hygiene, 27, 493-497 (1938).

[4] = system: Staphylococcus aureus; experiment: In vivo efficacy of compounds administered subcutaneously in mouse intraperitoneal infections; settings: mouse i.p. Staphylococcus aureus infection, subcutaneous, dosed at infection and 4 h post-infection, 7 days; for ED50: sc, 168 h, read-out: ED50 (50 percent effective dose); for ED50 (50 percent effective dose): 10080 min
Experimental: as §1

[5] = mouse i.p. Staphylococcus aureus infection, oral, dosed at infection and 4 h post-infection, 7 days

Compound	MIC ([1]; Mueller-Hinton broth, 24-hour)	MIC ([2]; Mueller-Hinton broth, 24-hour)	ED50 [3, 5]	ED50 [4]	further results
C=CC(=O)NCC1CN(c2ccc(SC)cc2)C(=O)O1 (stereo not drawn) [Example 40]	12.5 µg/mL (≈ 42.8 µM)	> 200 µg/mL	53.1 mg/kg		
CC(=O)NCC1CN(c2ccc(C=O)cc2)C(=O)O1 (single isomer, unassigned) [Example 185, (l)-N-[3-(4-Formylphenyl)-2-oxo-5-oxazolidinylmethyl]acetamide]	> 128 µg/mL	> 128 µg/mL		35.9 mg/kg	
CCCC(=O)NCC1CN(c2ccc(S(C)(=O)=O)cc2)C(=O)O1 (stereo not drawn) [Example 29]	12.5 µg/mL (≈ 36.7 µM)	100 µg/mL (≈ 294 µM)	88.7 mg/kg		
CC(=O)NCC1CN(c2cccc(C(C)=O)c2)C(=O)O1 (stereo not drawn) [Example 37]	200 µg/mL (≈ 724 µM)	> 200 µg/mL	62.9 mg/kg		
CC(=O)NCC1CN(c2ccc(C(=O)C3CCCCC3)cc2)C(=O)O1 (stereo not drawn) [Example 141]	8 µg/mL (≈ 23.2 µM)	> 128 µg/mL	40.2 mg/kg	20.8 mg/kg	
CC(=O)NCC1CN(c2ccc(C(C)(C)C)cc2)C(=O)O1 (stereo not drawn) [Example 105]	1 µg/mL (≈ 3.44 µM)	> 128 µg/mL	10.8 mg/kg	13.8 mg/kg	
CSc1ccc(N2CC(CNC(=O)CCCl)OC2=O)cc1 (stereo not drawn) [Example 92]	50 µg/mL (≈ 152 µM)	> 200 µg/mL	31 mg/kg		
C[S+]([O-])c1ccc(N2CC(CNC(=O)CCCl)OC2=O)cc1 (stereo not drawn) [Example 93]	50 µg/mL (≈ 145 µM)	> 200 µg/mL	> 120 mg/kg		
COc1ccc(N2CC(CNC(C)=O)OC2=O)cc1 (stereo not drawn) [Example 44]	100 µg/mL (≈ 378 µM)	> 200 µg/mL	30.3 mg/kg		
NS(=O)(=O)c1ccc(N2CC(CNC=O)OC2=O)cc1 (single isomer, unassigned) [Example 24, (l)-N-[3-[4-(Aminosulfonyl)phenyl]-2-oxooxazolidin-5-ylmethyl]formamide]	> 100 µg/mL	> 100 µg/mL	74.3 mg/kg		
CC(=O)c1ccc(N2CC(CNC(=O)CN)OC2=O)cc1 (stereo not drawn) [Example 176]	32 µg/mL (≈ 110 µM)	> 128 µg/mL	30.9 mg/kg	11.2 mg/kg	
CC(=O)NCC1CN(c2ccc(C(=O)COC(C)=O)cc2)C(=O)O1 (single isomer, unassigned) [Example 183, (l)-N-[3-[4-(Acetyloxyacetyl)phenyl]-2-oxo-5-oxazolidinylmethyl]acetamide]	0.5 µg/mL (≈ 1.5 µM)	64 µg/mL (≈ 191 µM)	9.1 mg/kg	3.4 mg/kg	
CC(=O)c1ccc(N2CC(CN)OC2=O)cc1 (stereo not drawn) [Example 15]	> 200 µg/mL	> 200 µg/mL	40 mg/kg	24.9 mg/kg	
CS(=O)(=O)c1ccc(N2CC(CNC(=O)C3CC3)OC2=O)cc1 (stereo not drawn) [Example 72]	25 µg/mL (≈ 73.9 µM)	200 µg/mL (≈ 591 µM)	> 120 mg/kg	15.2 mg/kg	
CC(=O)NCC1CN(c2ccc(CO)cc2)C(=O)O1 (stereo not drawn) [Example 106]	64 µg/mL (≈ 242 µM)	> 128 µg/mL			
COC(=O)NCC1CN(c2ccc(S(N)(=O)=O)cc2)C(=O)O1 (stereo not drawn) [Example 45]	37.5 µg/mL (≈ 114 µM)	> 200 µg/mL	> 120 mg/kg	9.6 mg/kg	
CC(=O)c1ccc(N2CC(CN)OC2=O)cc1 (single isomer, unassigned) [Example 170, (l)-3-(4-Acetylphenyl)-5-(aminomethyl)-2-oxazolidinone hydrochloride]	> 128 µg/mL	> 128 µg/mL	32.3 mg/kg	25.3 mg/kg	
CC(=O)NCC1CN(c2ccc([S+]([O-])CCO)cc2)C(=O)O1 (stereo not drawn) [Example 169, (l)-N-[3-[4-(2-Hydroxyethylsulfinyl)phenyl]-2-oxo-oxazolidin-5-ylmethyl]acetamide]					Microdilution Broth MIC ([1]; Mueller-Hinton broth, 24-hour): 50.0 µg/mL; Microdilution Broth MIC ([2]; Mueller-Hinton broth, 24-hour): 200.0 µg/mL; ED50 (50 percent effective dose) [3, 5]: 99.1 mg/kg; ED50 (50 percent effective dose) [4]: 12.1 mg/kg
CC(=O)NCC1CN(c2ccc([S+]([O-])CCO)cc2)C(=O)O1 (stereo not drawn) [Example 168, (l)-N-[3-[4-(2-Hydroxyethylsulfinyl)phenyl]-2-oxo-oxazolidin-5-ylmethyl]acetamide]					Microdilution Broth MIC ([1]; Mueller-Hinton broth, 24-hour): 25.0 µg/mL; Microdilution Broth MIC ([2]; Mueller-Hinton broth, 24-hour): > 200.0 µg/mL; ED50 (50 percent effective dose) [3, 5]: 49.8 mg/kg; ED50 (50 percent effective dose) [4]: 24.3 mg/kg
CCc1cc(N2CC(CNC(C)=O)OC2=O)ccc1C(C)=O (stereo not drawn) [Example 143]	16 µg/mL (≈ 52.6 µM)	> 128 µg/mL	20.8 mg/kg	11.9 mg/kg	
COC(=O)c1ccc(N2CC(CNC(C)=O)OC2=O)cc1 (single isomer, unassigned) [Example 184, (l)-4-[(5-Acetylaminomethyl)-2-oxo-3-oxazolidinyl]benzoic acid methyl ester]	4 µg/mL (≈ 13.7 µM)	> 128 µg/mL	> 60 mg/kg	37.5 mg/kg	
CC(=O)NCC1CN(c2ccc(C(=O)C(Br)(Br)Br)cc2)C(=O)O1 (stereo not drawn) [Example 140]	4 µg/mL (≈ 7.8 µM)	128 µg/mL (≈ 250 µM)	6.6 mg/kg	13.2 mg/kg	

Compound	MIC ([1]; Mueller-Hinton broth, 24-hour)	MIC ([2]; Mueller-Hinton broth, 24-hour)	ED50 [3, 5]	ED50 [4]	further results
CC(=O)NCC1CN(c2ccc(C)cc2)C(=O)O1 (stereo not drawn) [Example 79]	200 µg/mL (≈ 806 µM)	> 200 µg/mL	99.8 mg/kg	85.1 mg/kg	
CCCCc1ccc(N2CC(CNC(=O)OC)OC2=O)cc1 (stereo not drawn) [Example 80]	25 µg/mL (≈ 81.6 µM)	> 200 µg/mL	64 mg/kg	42.3 mg/kg	
CC(=O)NCC1CN(c2ccc(C(C)=NN)cc2)C(=O)O1 (single isomer, unassigned) [Example 131, (l)-N-[3-[4-(1-Hydrazonoethyl)phenyl]-2-oxo-5-oxazolidinylmethyl]acetamide]	3.1 µg/mL (≈ 10.7 µM)	100 µg/mL (≈ 344 µM)	< 4.4 mg/kg	< 4.4 mg/kg	
CCOC(OCC)C(=O)NCC1CN(c2ccc(SC)cc2)C(=O)O1 (stereo not drawn) [Example 75]	> 200 µg/mL	> 200 µg/mL	130 mg/kg		
CC(=O)NCC1CN(c2ccc(CBr)cc2)C(=O)O1 (single isomer, unassigned) [Example 166, (l)-N-[3-[4-(Bromomethyl)phenyl]-2-oxooxazolidin-5-ylmethyl]acetamide]	64 µg/mL (≈ 196 µM)	> 128 µg/mL			
CC(=O)NCC1CN(c2ccc(C(O)CO)cc2)C(=O)O1 (stereo not drawn) [Example 104]	32 µg/mL (≈ 109 µM)	> 128 µg/mL			
CC(=O)NCC1CN(c2ccc(CC(C)O)cc2)C(=O)O1 (stereo not drawn) [Example 100]	12.5 µg/mL (≈ 42.8 µM)	> 200 µg/mL	19.5 mg/kg	10.5 mg/kg	
CC(=O)c1ccc(N2CC(CNC(=O)C(F)(F)F)OC2=O)cc1 (stereo not drawn) [Example 178]	16 µg/mL (≈ 48.4 µM)	> 128 µg/mL	31.6 mg/kg	31.6 mg/kg	
CS(=O)(=O)c1ccc(N2CC(CN)OC2=O)cc1 (racemic) [Example 10, (dl)-5-Aminomethyl-3-[4-(methylsulfonyl)phenyl]-2-oxazolidinone trifluoroacetic Acid Salt]	50 µg/mL	> 100 µg/mL			
CS(=O)(=O)c1ccc(N2CC(CNC(N)=O)OC2=O)cc1 (stereo not drawn) [Example 77]	200 µg/mL (≈ 638 µM)	> 200 µg/mL		70.9 mg/kg	
COC(OC)C(=O)NCC1CN(c2ccc(SC)cc2)C(=O)O1 (stereo not drawn) [Example 73]	> 200 µg/mL	> 200 µg/mL	59.5 mg/kg		
COC(OC)C(=O)NCC1CN(c2ccc(S(C)(=O)=O)cc2)C(=O)O1 (stereo not drawn) [Example 74]	100 µg/mL (≈ 269 µM)	> 200 µg/mL	96.6 mg/kg		
C=CC(=O)NCC1CN(c2ccc([S+](C)[O-])cc2)C(=O)O1 (stereo not drawn) [Example 91]	25 µg/mL (≈ 81.1 µM)	> 200 µg/mL	50.7 mg/kg		
CC(=O)NCC1CN(c2ccc(SCC#N)cc2)C(=O)O1 (single isomer, unassigned) [Example 154, (l)-N-[3-[4-(Cyanomethylthio)phenyl]-2-oxooxazolidin-5-ylmethyl]acetamide]	3.2 µg/mL (≈ 10.5 µM)	> 200 µg/mL			
CS(=O)(=O)c1ccc(N2CC(CNC(=O)C(F)(F)F)OC2=O)cc1 (stereo not drawn) [Example 28]	12.5 µg/mL (≈ 34.1 µM)	50 µg/mL (≈ 136 µM)	71.3 mg/kg		
CCCOC(=O)NCC1CN(c2ccc(S(C)(=O)=O)cc2)C(=O)O1 (stereo not drawn) [Example 70]	50 µg/mL (≈ 140 µM)	> 200 µg/mL	51.7 mg/kg		
CCOC(OCC)C(=O)NCC1CN(c2ccc(S(C)(=O)=O)cc2)C(=O)O1 (stereo not drawn) [Example 76]	> 200 µg/mL	> 200 µg/mL	58 mg/kg		
CC(=O)NCC1CN(c2ccc([N+](=O)[O-])cc2[N+](=O)[O-])C(=O)O1 (single isomer, unassigned) [Example 147, (l)-N-[3-(2,4-Dinitrophenyl)-2-oxooxazolidin-5-ylmethyl]acetamide]					MIC [1]: 200 µg/mL (≈ 617 µM); MIC ([2]; 24 h): > 200 µg/mL; ED50 [3]: 44.4 mg/kg
CSc1ccc(N2CC(CN=[N+]=[N-])OC2=O)cc1 (stereo not drawn) [Example 4]	> 200 µg/mL	> 200 µg/mL	43.3 mg/kg		
CNC(=O)NCC1CN(c2ccc(S(C)(=O)=O)cc2)C(=O)O1 (stereo not drawn) [Example 35]	25 µg/mL (≈ 76.4 µM)	200 µg/mL (≈ 611 µM)	35.8 mg/kg		
CC(=O)NCC1CN(c2ccc(C#CCO)cc2)C(=O)O1 (stereo not drawn) [Example 103]	12.5 µg/mL (≈ 43.4 µM)	> 50 µg/mL			
CS(=O)(=O)c1ccc(N2CC(CNC(=O)C(N)c3ccccc3)OC2=O)cc1 (stereo not drawn) [Example 78]	> 200 µg/mL	> 200 µg/mL		67.1 mg/kg	
